From the supplement of paper PMC10307832

What was measured:
Test in all cases: relative viability (nuclei count vs DMSO), 5 days (fraction); higher = more cells survive
Ponatinib + Navitoclax = compound: Cc1ccc(C(=O)Nc2ccc(CN3CCN(C)CC3)c(C(F)(F)F)c2)cc1C#Cc1cnc2cccnn12 [Ponatinib] + CC1(C)CCC(c2ccc(Cl)cc2)=C(CN2CCN(c3ccc(C(=O)NS(=O)(=O)c4ccc(N[C@H](CCN5CCOCC5)CSc5ccccc5)c(S(=O)(=O)C(F)(F)F)c4)cc3)CC2)C1 [Navitoclax] (partner 0.5 µM)
In short: (§1)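 Relative viability divides the nuclei count in treated wells by that in vehicle wells. Lung cancer cell lines were seeded in 1536-well plates, dosed by pin tool the next day, and fixed and stained after 5 days in one step with final 0.05% Triton X-100, 1% formaldehyde and 1 ug/ml Hoechst. Dosing was a single drug or a fixed anchor-drug dose plus five library-drug doses (not always all listed) in √10 steps, and values are medians of duplicate plates imaged at 4×.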

Ponatinib + Foretinib = compound: Cc1ccc(C(=O)Nc2ccc(CN3CCN(C)CC3)c(C(F)(F)F)c2)cc1C#Cc1cnc2cccnn12 [Ponatinib] + COc1cc2c(Oc3ccc(NC(=O)C4(C(=O)Nc5ccc(F)cc5)CC4)cc3F)ccnc2cc1OCCCN1CCOCC1 [Foretinib] (partner 0.25 µM)
In short: as §1

Pazopanib = compound: Cc1ccc(Nc2nccc(N(C)c3ccc4c(C)n(C)nc4c3)n2)cc1S(N)(=O)=O [Pazopanib]
In short: (§2)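 Nuclei counted with MetaXpress define viability as the ratio of treated to vehicle wells, given as a median across plates. The lung cancer cell lines were in 1536-well plates, pinned with five √10-spaced library-drug doses and imaged at 4× after 5 days and Hoechst staining. Plates passed with control CV below 25% and at least one doubling.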

Ponatinib = compound: Cc1ccc(C(=O)Nc2ccc(CN3CCN(C)CC3)c(C(F)(F)F)c2)cc1C#Cc1cnc2cccnn12 [Ponatinib]
In short: as §2

Cell Line | relative viability (Ponatinib + Navitoclax; first compound 0.002 µM) | relative viability (Ponatinib + Navitoclax; first compound 0.006325 µM) | relative viability (Ponatinib + Navitoclax; first compound 0.06325 µM) | relative viability (Ponatinib + Navitoclax; first compound 0.2 µM) | relative viability (Ponatinib + Foretinib; first compound 0.002 µM) | relative viability (Ponatinib + Foretinib; first compound 0.006325 µM) | relative viability (Ponatinib + Foretinib; first compound 0.06325 µM) | relative viability (Ponatinib + Foretinib; first compound 0.2 µM) | relative viability (Pazopanib; 0.01 µM) | relative viability (Pazopanib; 0.03162 µM) | relative viability (Pazopanib; 0.1 µM) | relative viability (Pazopanib; 0.3162 µM) | relative viability (Pazopanib; 1 µM) | relative viability (Ponatinib; 0.002 µM) | relative viability (Ponatinib; 0.006325 µM) | relative viability (Ponatinib; 0.06325 µM) | relative viability (Ponatinib; 0.2 µM)
NCI-H2228 | 1.18 | 1.01 | 1.43 | 0.811 | 0.656 | 0.83 | 0.907 | 0.791 | 0.964 | 1 | 1.03 | 0.973 | 1.04 | 0.828 | 0.991 | 1.07 | 0.895
IA-LM | 0.658 | 0.62 | 0.749 | 0.684 | 1.06 | 1.1 | 1.01 | 1.06 | 0.935 | 0.995 | 1.03 | 1.05 | 0.918 | 0.872 | 0.903 | 0.953 | 0.802
NCI-H1395 | – | 1.15 | 1.09 | 0.977 | 0.903 | 0.996 | 0.945 | 0.904 | 0.848 | 1.03 | 0.825 | 1.1 | 1.2 | 0.675 | 0.934 | 0.91 | 0.708
NCI-H2085 | 1.1 | 1.16 | 1.28 | 1.16 | 0.989 | 0.836 | 0.879 | 0.832 | 0.973 | 1.04 | 0.966 | 1.01 | 1.02 | 1.01 | 0.997 | 1.19 | 1.06
NCI-H838 | 1.1 | 1.21 | 1.19 | 0.979 | 1.02 | 1.03 | 1.05 | 0.955 | 0.918 | 1.01 | 0.996 | 1.05 | 1.14 | 0.95 | 1.01 | 0.994 | 0.793
NCI-H460 | 1.04 | 1.05 | 1.24 | 1.06 | 0.92 | 0.938 | 1 | 0.967 | 0.966 | 1 | 1.04 | 1.01 | 1.05 | 0.943 | 0.958 | 0.969 | 0.985
LOU-NH91 | 0.679 | 0.753 | 0.779 | 0.655 | 0.929 | 0.98 | 0.996 | 0.931 | 0.903 | 0.955 | 0.949 | 1.11 | 1.01 | 0.957 | 1.03 | 1.04 | 0.938
NCI-H322M | 1.2 | 1.15 | 1.3 | 0.907 | 0.956 | 0.976 | 1.02 | 0.814 | 0.906 | 0.996 | 0.92 | 0.967 | 1.03 | 0.96 | 0.983 | 0.953 | 0.853
NCI-H520 | 0.946 | 1.1 | 0.922 | 0.646 | 0.628 | 0.786 | 0.496 | 0.596 | 0.858 | 1.01 | 1.01 | 1.1 | 1.11 | 0.774 | 0.921 | 0.832 | 0.628
NCI-H727 | 0.612 | 0.53 | 0.472 | 0.523 | 0.781 | 0.839 | 0.64 | 0.869 | 0.841 | 0.907 | 0.91 | 1 | 1.16 | 0.883 | 0.855 | 1.2 | 0.872
NCI-H1944 | 1.04 | 1.09 | 1.2 | 1.02 | 0.876 | 0.856 | 1.05 | 0.859 | 0.739 | 0.965 | 1.06 | 0.981 | 1.01 | 0.828 | 1.01 | 0.957 | 1
